Test results from patent publication US20240043427A1 (Gilead Sciences, Inc., priority 2020, published 2024).

Columns and labels:
[1] = molecular target: T1, CD73 (Homo sapiens (Human), UniProt P21589); test: MDA-MB-231 Cell Based CD73 Activity Assay (DMEM); conditions: MDA-MB-231-GFP cells, DMEM medium with 10% human plasma, 200 uM AMP
[2] = molecular target: T1, CD73; format: biochemical; conditions: 1 mM NaH2PO4 in enzyme buffer, CD73 0.3 nM, AMP 15 uM

T1 sequence (P21589 27-574): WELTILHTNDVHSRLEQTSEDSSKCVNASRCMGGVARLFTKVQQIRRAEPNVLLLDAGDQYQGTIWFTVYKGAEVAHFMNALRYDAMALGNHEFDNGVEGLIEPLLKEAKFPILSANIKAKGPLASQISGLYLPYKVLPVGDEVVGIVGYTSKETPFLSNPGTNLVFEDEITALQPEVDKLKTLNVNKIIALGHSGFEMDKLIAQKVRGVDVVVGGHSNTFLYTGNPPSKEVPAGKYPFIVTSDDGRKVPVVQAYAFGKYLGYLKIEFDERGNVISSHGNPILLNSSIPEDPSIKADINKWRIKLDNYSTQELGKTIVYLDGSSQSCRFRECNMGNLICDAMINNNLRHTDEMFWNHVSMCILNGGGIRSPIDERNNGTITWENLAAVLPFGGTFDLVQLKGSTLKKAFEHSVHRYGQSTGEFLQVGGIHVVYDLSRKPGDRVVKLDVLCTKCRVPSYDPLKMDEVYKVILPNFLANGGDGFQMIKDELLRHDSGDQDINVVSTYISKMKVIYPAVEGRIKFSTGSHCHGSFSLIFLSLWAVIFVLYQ

Row | SMILES | EC50 [1] [nM] | IC50 [2] [nM]
1 | COC(=O)c1ccc(C2CN(c3cc(-c4c[nH]c(=O)[nH]c4=O)nn4ccnc34)C2)cc1 [Example 261, Methyl 4-(1-(6-(2,4-dioxo-1,2,3,4-tetrahydropyrimidin-5-yl)imidazo[1,2-b]pyridazin-8-yl)azetidin-3-yl)benzoate] | 139 | 13.9
2 | O=c1[nH]cc(-c2cc([C@H]3C[C@@H]3c3ncc4cnn(CC(F)(F)F)c4c3F)c3nccn3n2)c(=O)[nH]1 (racemic) [Example 615, 5-(8-((1S,2S)-2-(7-fluoro-1-(2,2,2-trifluoroethyl)-1H-pyrazolo[4,3-c]pyridin-6-yl)cyclopropyl)imidazo[1,2-b]pyridazin-6-yl)pyrimidine-2,4(1H,3H)-dione] | 0.28 | 1.54
3 | O=c1[nH]cc(-c2cc(N3CC(F)(F)C4(CC4)C3)n3ncc(Cl)c3n2)c(=O)[nH]1 [Example 218, 5-(3-chloro-7-(7,7-difluoro-5-azaspiro[2.4]heptan-5-yl)pyrazolo[1,5-a]pyrimidin-5-yl)pyrimidine-2,4(1H,3H)-dione] | 455 | 3.29
4 | O=c1[nH]cc(-c2cc([C@H]3C[C@@H]3c3ccc4nc(C(F)F)sc4c3)c3nccn3n2)c(=O)[nH]1 (racemic) [Example 589, 5-(8-((1S,2S)-2-(2-(difluoromethyl)benzo[d]thiazol-6-yl)cyclopropyl)imidazo[1,2-b]pyridazin-6-yl)pyrimidine-2,4(1H,3H)-dione] | 2.56 | 0.63
5 | O=c1[nH]cc(-c2cc(N3CC(C4CCC4)C3)c3nccn3n2)c(=O)[nH]1 [Example 401, 5-(8-(3-cyclobutylazetidin-1-yl)imidazo[1,2-b]pyridazin-6-yl)pyrimidine-2,4(1H,3H)-dione] | 53 | 12.6
6 | O=c1[nH]cc(-c2cc(N3CC(Oc4ccc(C(F)(F)F)cn4)(C(F)(F)F)C3)c3nccn3n2)c(=O)[nH]1 [Example 434, 5-(8-(3-(trifluoromethyl)-3-((5-(trifluoromethyl)pyridin-2-yl)oxy)azetidin-1-yl)imidazo[1,2-b]pyridazin-6-yl)pyrimidine-2,4(1H,3H)-dione] | 14.4 | 2.78
7 | CC1(C)CN(c2cc(-c3c[nH]c(=O)[nH]c3=O)nn3cc(C4CC4)nc23)CC1(F)F [Example 145, 5-(2-cyclopropyl-8-(3,3-difluoro-4,4-dimethylpyrrolidin-1-yl)imidazo[1,2-b]pyridazin-6-yl)pyrimidine-2,4(1H,3H)-dione] | 41.7 | 20.5
8 | CC(C)(F)C1CN(c2cc(-c3c[nH]c(=O)[nH]c3=O)nn3ccnc23)C1 [Example 409, 5-(8-(3-(2-fluoropropan-2-yl)azetidin-1-yl)imidazo[1,2-b]pyridazin-6-yl)pyrimidine-2,4(1H,3H)-dione] | 37.8 | 10.7
9 | O=C1N(CC(F)(F)F)c2cc([C@H]3C[C@@H]3c3cc(-c4c[nH]c(=O)[nH]c4=O)nn4c(F)cnc34)ccc2C12CC2 [Example 381, 5-(3-fluoro-8-((1S,2S)-2-(2′-oxo-1′-(2,2,2-trifluoroethyl)spiro[cyclopropane-1,3′-indolin]-6′-yl)cyclopropyl)imidazo[1,2-b]pyridazin-6-yl)pyrimidine-2,4(1H,3H)-dione] | 0.16 | 0.69
10 | O=c1[nH]cc(-c2cc([C@H]3C[C@@H]3c3ncc(Cl)cc3F)c3ncc(F)n3n2)c(=O)[nH]1 (racemic) [Example 583, 5-(8-((1S,2S)-2-(5-chloro-3-fluoropyridin-2-yl)cyclopropyl)-3-fluoroimidazo[1,2-b]pyridazin-6-yl)pyrimidine-2,4(1H,3H)-dione] | 9.53 | 2.63
11 | O=c1[nH]cc(-c2cc([C@@H]3C[C@H]3c3cc(F)c(F)c(F)c3)c3nccn3n2)c(=O)[nH]1 (racemic) [Example 36] | 2.53 | 2.72
12 | O=c1[nH]cc(-c2cc(N3CC(F)C4(CC4)C3)c3ncc(F)n3n2)c(=O)[nH]1 (stereo not shown) [Example 148, 5-(3-fluoro-8-(7-fluoro-5-azaspiro[2.4]heptan-5-yl)imidazo[1,2-b]pyridazin-6-yl)pyrimidine-2,4(1H,3H)-dione] | 17.9 | 8
13 | O=c1[nH]cc(-c2cc([C@H]3C[C@@H]3c3ccc4nc(C(F)F)n(CC(F)(F)F)c4c3)c3nccn3n2)c(=O)[nH]1 (racemic) [Example 626, 5-(8-((1S,2S)-2-(2-(difluoromethyl)-1-(2,2,2-trifluoroethyl)-1H-benzo[d]imidazol-6-yl)cyclopropyl)imidazo[1,2-b]pyridazin-6-yl)pyrimidine-2,4(1H,3H)-dione] | 0.26 | 5.16
14 | O=c1[nH]cc(-c2cc(N3C[C@@H](Oc4ccccn4)C(F)(F)C3)c3nccn3n2)c(=O)[nH]1 [Example 538, (R)-5-(8-(3,3-difluoro-4-(pyridin-2-yloxy)pyrrolidin-1-yl)imidazo[1,2-b]pyridazin-6-yl)pyrimidine-2,4(1H,3H)-dione] | 48.9 | 11.5
15 | O=C(NC12CC(C(F)(F)F)(C1)C2)O[C@H]1CN(c2cc(-c3c[nH]c(=O)[nH]c3=O)nn3c(F)cnc23)CC1(F)F [Example 665, (S)-1-(6-(2,4-dioxo-1,2,3,4-tetrahydropyrimidin-5-yl)-3-fluoroimidazo[1,2-b]pyridazin-8-yl)-4,4-difluoropyrrolidin-3-yl (3-(trifluoromethyl)bicyclo[1.1.1]pentan-1-yl)carbamate] | 2.79 | 1.46
16 | O=c1[nH]cc(-c2cc([C@H]3C[C@@H]3c3ncc(C(F)(F)F)cc3F)c3nccn3n2)c(=O)[nH]1 (racemic) [Example 582, 5-(8-((1S,2S)-2-(3-fluoro-5-(trifluoromethyl)pyridin-2-yl)cyclopropyl)imidazo[1,2-b]pyridazin-6-yl)pyrimidine-2,4(1H,3H)-dione] | 15.6 | 4.96
17 | O=C(CCC(F)(F)COc1cc(-c2c[nH]c(=O)[nH]c2=O)nn2ccnc12)NCC(F)(F)F [Example 458, 5-((6-(2,4-dioxo-1,2,3,4-tetrahydropyrimidin-5-yl)imidazo[1,2-b]pyridazin-8-yl)oxy)-4,4-difluoro-N-(2,2,2-trifluoroethyl)pentanamide] | 13.2 | 4.04
18 | CC1(C)C(=O)N(CC(F)(F)F)c2cc([C@H]3C[C@@H]3c3cc(-c4c[nH]c(=O)[nH]c4=O)nn4c(Cl)cnc34)ccc21 [Example 722, 5-[3-chloro-8-[(1S,2S)-2-[3,3-dimethyl-2-oxo-1-(2,2,2-trifluoroethyl)indolin-6-yl]cyclopropyl]imidazo[1,2-b]pyridazin-6-yl]-1H-pyrimidine-2,4-dione] | 0.58 | 1.1
19 | O=c1[nH]cc(-c2cc([C@H]3C[C@@H]3c3ccc4cnn(CC(F)(F)F)c4c3F)c3nccn3n2)c(=O)[nH]1 [Example 594, 5-(8-((1S,2S)-2-(7-fluoro-1-(2,2,2-trifluoroethyl)-1H-indazol-6-yl)cyclopropyl)imidazo[1,2-b]pyridazin-6-yl)pyrimidine-2,4(1H,3H)-dione] | 0.12 | 0.58
20 | O=c1[nH]cc(-c2cc([C@H]3C[C@@H]3c3ccc(C(F)(F)F)cn3)c3nccn3n2)c(=O)[nH]1 [Example 150, 5-(8-((1S,2S)-2-(5-(trifluoromethyl)pyridin-2-yl)cyclopropyl)imidazo[1,2-b]pyridazin-6-yl)pyrimidine-2,4(1H,3H)-dione] | 4.79 | 1.93
